ChEMBL document CHEMBL1201862, “PubChem BioAssay data set” (2004)
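Protocol summary: plate cells (96-well), add compound at 5 concentrations, incubate 48 h, interpolate endpoints linearly. Here, GI50 denotes the concentration required for 50% inhibition of growth.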 The source made the active and inactive calls. No stated cut-off is given here; in the data, active = GI50 up to about 1.1 µM and inactive = higher.

Key:
Assay in all cases: growth of human tumour cells (NCI), 48 h
[1] = tested on: 786-0
[2] = tested on: A549
[3] = tested on: DMS-273
[4] = tested on: DU-145
[5] = tested on: HCT-116
[6] = tested on: HOP-92
[7] = tested on: K562
[8] = tested on: M14
[9] = tested on: MCF7
[10] = tested on: MDA-N
[11] = tested on: MOLT-4
[12] = tested on: Malme-3M
[13] = tested on: NCI-H226
[14] = tested on: NCI-H23
[15] = tested on: OVCAR-3
[16] = tested on: SF-539
[17] = tested on: SK-MEL-2
[18] = tested on: SK-MEL-5
[19] = tested on: SN12C
[20] = tested on: SW-620

| Compound | GI50 [1] | GI50 [2] | GI50 [3] | GI50 [4] | GI50 [5] | GI50 [6] | GI50 [7] | GI50 [8] | GI50 [9] | GI50 [10] | GI50 [11] | GI50 [12] | GI50 [13] | GI50 [14] | GI50 [15] | GI50 [16] | GI50 [17] | GI50 [18] | GI50 [19] | GI50 [20] |
| --- | --- | --- | --- | --- | --- | --- | --- | --- | --- | --- | --- | --- | --- | --- | --- | --- | --- | --- | --- | --- |
| C[S+]([O-])c1cc(=O)c2ccccc2s1 (centres undefined) | 2.82 µM (inactive) | 18.5 µM (inactive) | 8.67 µM (inactive) | 18.7 µM (inactive) | 2.55 µM (inactive) | 2.94 µM (inactive) | 1.82 µM (inactive) | 1.67 µM (inactive) | 5.42 µM (inactive) | 3.05 µM (inactive) | 2.05 µM (inactive) | 2.3 µM (inactive) | 16.9 µM (inactive) | 6.19 µM (inactive) | 2.42 µM (inactive) | 9.12 µM (inactive) | 10.8 µM (inactive) | 10.6 µM (inactive) | 5.79 µM (inactive) | 1.91 µM (inactive) |
| CC(C)(C)c1ccc(OCCOCCOc2ccc(C(C)(C)C)cc2S(=O)(=O)Nc2ccc([N+](=O)[O-])cc2)c(S(=O)(=O)Nc2ccc([N+](=O)[O-])cc2)c1 | 45.6 µM (inactive) | 4.42 µM (inactive) | 7.94 µM (inactive) | – | 4.86 µM (inactive) | 4.07 µM (inactive) | 6.21 µM (inactive) | 8.28 µM (inactive) | – | – | 3.01 µM (inactive) | 83.9 µM (inactive) | 47.8 µM (inactive) | 12.7 µM (inactive) | 7.43 µM (inactive) | > 100 µM (inactive) | 8.07 µM (inactive) | 6.17 µM (inactive) | 7.19 µM (inactive) | 61.8 µM (inactive) |
| CC(=O)OC1CCC2C(=CCC3C2(C)C(=O)CC2(C)C(C4(C)OC(C(C)C)=CC4=O)C(O)CC32C)C1(C)C (centres undefined) | > 100 µM (inactive) | 31.6 µM (inactive) | 23.3 µM (inactive) | – | > 10 µM (inactive) | 41.3 µM (inactive) | 35.5 µM (inactive) | 23.3 µM (inactive) | – | – | 32.4 µM (inactive) | 21.5 µM (inactive) | 75 µM (inactive) | 63.2 µM (inactive) | > 10 µM (inactive) | 18.1 µM (inactive) | 27.1 µM (inactive) | 23.5 µM (inactive) | 54.5 µM (inactive) | 41 µM (inactive) |
| Cc1ccc(Sc2ccccc2N)cc1 | 29.2 µM (inactive) | 39.3 µM (inactive) | 30.8 µM (inactive) | – | 35.6 µM (inactive) | 22.7 µM (inactive) | 37.4 µM (inactive) | 32.7 µM (inactive) | – | – | 18.4 µM (inactive) | 46.5 µM (inactive) | 17.5 µM (inactive) | 26.7 µM (inactive) | 44.7 µM (inactive) | 29.5 µM (inactive) | 35.7 µM (inactive) | 20.7 µM (inactive) | 41.1 µM (inactive) | 49 µM (inactive) |
| O=C(Nc1nc2ncn(CCI)c2c(=O)[nH]1)c1ccccc1 | 46.1 µM (inactive) | 76 µM (inactive) | > 100 µM (inactive) | – | > 100 µM (inactive) | 27.9 µM (inactive) | > 100 µM (inactive) | > 100 µM (inactive) | – | – | > 100 µM (inactive) | > 100 µM (inactive) | 23.4 µM (inactive) | > 100 µM (inactive) | 52.8 µM (inactive) | 26.1 µM (inactive) | > 53.5 µM (inactive) | > 100 µM (inactive) | 59.3 µM (inactive) | > 100 µM (inactive) |
| Cc1cc2occ(-c3ccc(Cl)cc3)c2c(=O)o1 | > 100 µM (inactive) | > 100 µM (inactive) | > 100 µM (inactive) | – | > 100 µM (inactive) | > 100 µM (inactive) | > 100 µM (inactive) | 88.1 µM (inactive) | – | – | 67.9 µM (inactive) | > 100 µM (inactive) | > 100 µM (inactive) | > 100 µM (inactive) | > 100 µM (inactive) | > 100 µM (inactive) | > 100 µM (inactive) | > 100 µM (inactive) | > 100 µM (inactive) | > 100 µM (inactive) |
| N#C/N=C(/NCc1ccccc1)N(Cc1ccccc1)Cc1ccccc1 | 23.2 µM (inactive) | 16.4 µM (inactive) | > 10 µM (inactive) | 63 µM (inactive) | 17.8 µM (inactive) | 24.6 µM (inactive) | 26.3 µM (inactive) | 23.4 µM (inactive) | 36.1 µM (inactive) | 46.7 µM (inactive) | 14.1 µM (inactive) | > 10 µM (inactive) | 22.4 µM (inactive) | 19.8 µM (inactive) | 22.6 µM (inactive) | 23.7 µM (inactive) | 15.2 µM (inactive) | 14.9 µM (inactive) | 25.2 µM (inactive) | 64 µM (inactive) |
| CCCCc1c2c(nc3c1CCc1cc(C=O)c(N)nc1-3)/C(=C/c1ccccc1)CCC2 | > 100 µM (inactive) | 19.6 µM (inactive) | > 100 µM (inactive) | – | > 100 µM (inactive) | > 100 µM (inactive) | > 100 µM (inactive) | > 100 µM (inactive) | – | – | 52.2 µM (inactive) | > 100 µM (inactive) | > 100 µM (inactive) | > 100 µM (inactive) | > 100 µM (inactive) | > 100 µM (inactive) | > 100 µM (inactive) | > 100 µM (inactive) | > 100 µM (inactive) | > 100 µM (inactive) |
| COc1cc2c(c(O)c1C)C(=O)C(Cl)=CC2=O | 11.6 µM (inactive) | 22.1 µM (inactive) | 19.2 µM (inactive) | 6.46 µM (inactive) | 8.28 µM (inactive) | 4.71 µM (inactive) | 2.26 µM (inactive) | 6.47 µM (inactive) | 6.85 µM (inactive) | 4.07 µM (inactive) | 1.88 µM (inactive) | 4.21 µM (inactive) | 15.1 µM (inactive) | 10.2 µM (inactive) | 9.91 µM (inactive) | 18.1 µM (inactive) | 15.6 µM (inactive) | 8.69 µM (inactive) | 12.4 µM (inactive) | 3.06 µM (inactive) |
| CCN(CCCl)CCCNc1c2ccccc2nc2ccc(OC)cc12 | 0.114 µM (active) | 0.232 µM (active) | 0.059 µM (active) | – | 0.0585 µM (active) | 0.133 µM (active) | 0.0861 µM (active) | 0.522 µM (active) | – | – | 0.0158 µM (active) | 0.603 µM (active) | 0.0678 µM (active) | 0.12 µM (active) | 1.1 µM (active) | 0.142 µM (active) | 0.418 µM (active) | 0.388 µM (active) | 0.0548 µM (active) | 0.0371 µM (active) |
